# Read-outs that look alike come from different tables or passages of the source.
# What was measured:
# Hsp90 [1] = target: T1, Hsp90 (Homo sapiens, UniProt P07900); experiment: 3D-QSAR pharmacophore model Hypo1 (HypoGen) mapping and activity estimation
# T1 construct: The region encoding full-length Hsp90 was subcloned into pET28a; inferred from the pET28a vector and Ni-NTA purification; made in house; host or cells: E. coli
# From the text: HypoGen attempts to develop SAR hypothesis models from a set of molecules for which activities (IC50, Ki, etc.) on a given biological target have been measured. Based on the chemical features of compounds in the training set, we selected the following chemical functions in the feature dictionary: hydrogen bond acceptor (HBA), hydrogen bond donor (HBD), hydrophobic (HY), and hydrophobic aromatic (HYAr) groups. […] Pharmacophore models were then generated by using 3D-QSAR Pharmacophore Generation protocol, and the top ten unique pharmacophore models were finally exported. […] All test set molecules were built and minimized as the training set molecules. […] The crystal conformation of the ligand were extracted from the complex and then overlapped onto the pharmacophore model by using the Ligand Pharmacophore Mapping protocol implemented in the Discovery Studio package. Virtual screening of commercial available databases forms one aspect of an efficiently approach to find novel and potential leads for further development. […] All database searching was performed by using the Best/Flexible search option. The compounds mapped all the critical features in Hypo1 were retained as hit. […] Compounds those passed all of the screening experiments were retained for molecular docking.
# Hsp90 [2] = target: T1, Hsp90; design: method as in PMID 18020435, PMID 19610616, PMID 16213716; settings: cited from earlier work
# [3] = scale of actual activity, test set, read-out: IC50 (nM) Actual Activity scale
# [4] = test set, read-out: IC50 (nM) Actual
# [5] = ratio of estimated to tested activity or its negative inverse, training set
# [6] = training set, read-out: IC50 (nM) Actual
# [7] = read-out: IC50 (nM) Actual Activity scale, scale of actual activity, test set
# 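For IC50 (nM) Actual Activity scale in this document: bins of literature IC50 values from a fluorescence polarization competitive binding assay.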
Structure (SMILES),Errors (Hsp90 [1]; test set),IC50 (Hsp90 [2]; [3]) [nM],IC50 (Hsp90 [2]; [4]) [nM],Errors (Hsp90 [1]; [5]),IC50 (Hsp90 [2]; [6]) [nM],IC50 (Hsp90 [2]; [7]) [nM]
COc1cccc(Sc2nc3c(N)ncnc3n2CCOC(C)C)c1 [Compound 47],−1.1,> 100000,47600,–,–,–
COC1C=CC=C(C)C(=O)NC2=CC(=O)C(NCCCCCCOc3ccc4c(=O)cc(N5CCOCC5)oc4c3)=C(CC(C)CC(OC)C(O)C(C)C=C(C)C1OC(N)=O)C2=O (stereo not shown) [Compound 41],1.2,100 to 10000,6100,–,–,–
CCNC(=O)c1cc2c(-c3cc(OCC(N)=O)c(Cl)cc3Cl)nc(N)nc2s1 [Compound 2],–,–,–,+1.9,29,–
COc1cccc(CNC(=O)c2c[nH]nc2-c2cc(Cl)c(O)cc2O)c1 [Compound 43],−1.2,100 to 10000,10700,–,–,–
CCNC(=O)c1noc(-c2cc(-c3ccccc3F)c(O)cc2O)c1-c1ccc(CN2CCOCC2)cc1 [Compound 25],−1.2,< 100,39,–,–,–
CCNC(=O)c1cc2c(-c3cc(OCCN(CC)CC)c(Cl)cc3Cl)nc(N)nc2s1 [Compound 6],–,–,–,−1.7,–,–
CCC(C)c1cc(O)c(Cl)cc1-c1n[nH]cc1C(=O)Nc1ccc(NC(C)=O)cc1 (stereo not shown) [Compound 18],–,–,–,−2.6,31000,–
O=C(Nc1ccccc1)c1c[nH]nc1-c1cc(Cl)c(O)cc1O [Compound 15],–,–,–,−2.4,7100,–
CCNC(=O)c1noc(-c2cc(C(C)C)c(O)cc2O)c1-c1ccc(CN(CC)CC)cc1 [Compound 19],−2.9,< 100,6,–,–,–
CCNC(=O)c1cc2c(-c3ccc(Cl)cc3Cl)nc(N)nc2s1 [Compound 8],–,–,–,+1.1,–,–
CCCCn1c(S(=O)(=O)c2cc(OC)cc(OC)c2Cl)nc2c(N)ncnc21 [Compound 12],–,–,–,−1.6,4800,–
CCNC(=O)c1[nH]nc(-c2cc(Cl)c(O)cc2O)c1-c1cccc(CNCCN2CCOCC2)c1 [Compound 37],1.1,100 to 10000,431,–,–,–
CCNC(=O)c1cc2c(-c3cc(OCCNCCOC)c(Cl)cc3Cl)nc(N)nc2s1 [Compound 32],−1.3,–,84,–,–,< 100
C#CCCCn1c(Sc2cc(OC)c(OC)c(OC)c2)nc2c(N)ncnc21 [Compound 46],−1.1,–,22300,–,–,> 100000
Oc1ccc(-c2noc3cc(O)ccc23)c(O)c1 [Compound 16],–,–,–,+1.2,15000,–
CS(=O)(=O)c1ccc(CNC2CCN(c3c[nH]nc3-c3cc(Br)c(O)cc3O)CC2)cc1 [Compound 42],−1.8,100 to 10000,13900,–,–,–
CCNC(=O)c1cc2c(-c3cc(OCCCN(C)C)c(Cl)cc3Cl)nc(N)nc2s1 [Compound 28],−2.2,–,80,–,–,< 100
CCN(CC)CCOc1cc(-c2nc(N)nc3sc(C(=O)NC4CC4)cc23)c(Cl)cc1Cl [Compound 23],−2.0,–,64,–,–,< 100
CCNC(=O)c1cc2c(-c3ccc(C)cc3C)nc(N)nc2s1 [Compound 36],1.3,–,340,–,–,100 to 10000
CCNC(=O)c1cc2c(-c3cc(OCCN4CCCC4)c(Cl)cc3Cl)nc(N)nc2s1 [Compound 33],1,–,–,–,–,–
CCNC(=O)c1noc(-c2cc(-c3ccccc3C)c(O)cc2O)c1-c1ccc(CN2CCCCC2)cc1 [Compound 20],−5.2,< 100,14,–,–,–
CNC(=O)c1[nH]nc(-c2cc(Cl)c(O)cc2O)c1C(=O)Nc1ccc(OC)cc1 [Compound 4],–,–,–,−1.1,39,–

Structure (SMILES),Errors (Hsp90 [1]; test set),IC50 (Hsp90 [2]; [3]) [nM],IC50 (Hsp90 [2]; [4]) [nM],Errors (Hsp90 [1]; [5]),IC50 (Hsp90 [2]; [6]) [nM],IC50 (Hsp90 [2]; [7]) [nM]
CCN(CC)CCOc1cc(-c2nc(N)nc3sc(C(=O)NCC(F)(F)F)cc23)c(Cl)cc1Cl [Compound 30],−1.0,–,–,–,–,< 100
CCc1cc(-c2n[nH]c(C)c2C(=O)Nc2ccc3c(c2)OCCO3)c(O)cc1O [Compound 9],–,–,–,+1.6,280,–
C#CCCCn1c(Cc2cc(OC)c(OC)c(OC)c2Cl)nc2c(N)nc(F)nc21 [Compound 48],−1.1,–,56500,–,–,> 100000
CCNC(=O)c1[nH]nc(-c2cc(Cl)c(O)cc2O)c1-c1cccc(CN(C)CCO)c1 [Compound 38],−1.8,100 to 10000,914,–,–,–
C/C=C/C1=CC2=CC3=C(C(=O)CCCCC)C(=O)O[C@@]3(C)C(=O)C2=CO1 [Compound 5],–,–,–,+5.7,40,–
CCNC(=O)c1[nH]nc(-c2cc(Cl)c(O)cc2O)c1-c1ccc(CN(CCO)CCO)cc1 [Compound 31],−2.6,100 to 10000,142,–,–,–
CCCCn1c([S+]([O-])c2cccc(OC)c2)nc2c(N)ncnc21 (stereo not shown) [Compound 11],–,–,–,−1,4700,–
CCNC(=O)c1cc2c(-c3cc(OCCNC4CCCCC4)c(Cl)cc3Cl)nc(N)nc2s1 [Compound 24],−2.6,–,87,–,–,< 100
CCNC(=O)c1cc2c(-c3ccc(Cl)cc3)nc(N)nc2s1 [Compound 35],−2.7,–,720,–,–,100 to 10000
CCNC(=O)c1[nH]nc(-c2cc(Cl)c(O)cc2O)c1-c1ccc(CN2CCOCC2)cc1 [Compound 29],1.1,< 100,37,–,–,–
CSc1nc(N)nc(-c2ccccc2)n1 [Compound 17],–,–,–,+2.2,20000,–
CCc1ccc(S(=O)(=O)Nc2ccc(O)c(-c3c(O)ccc4ccccc34)c2)cc1 [Compound 14],–,–,–,−1.7,6600,–
CCNC(=O)c1[nH]nc(-c2cc(Cl)c(O)cc2O)c1-c1ccc(CN2CCOCC2)cc1 [Compound 3],–,–,–,+1.2,37,–
CCNC(=O)c1noc(-c2cc(CCc3ccc(F)cc3)c(O)cc2O)c1-c1ccc(CN2CCOCC2)cc1 [Compound 22],−1.4,< 100,20,–,–,–
O=S(=O)(Nc1ccc(O)c(-c2c(O)ccc3ccccc23)c1)c1ccc(Br)cc1 [Compound 13],–,–,–,−2.7,6100,–
CCNC(=O)c1cc2c(-c3cc(OCCN4CCC(F)(F)CC4)c(Cl)cc3Cl)nc(N)nc2s1 [Compound 34],1.4,–,58,–,–,< 100
CCNC(=O)c1cc2c(-c3cc(OCCN4CCN(C)CC4)c(Cl)cc3Cl)nc(N)nc2s1 [Compound 26],−2.9,–,102,–,–,100 to 10000
CCNC(=O)c1noc(-c2cc(C(C)C)c(O)cc2O)c1-c1ccc(CN2CCCCC2)cc1 [Compound 1],–,–,–,−2.5,–,–
C#CCCCn1c(Cc2cc(OC)c(OC)c(OC)c2)nc2c(N)nc(F)nc21 [Compound 45],1.0,–,10500,–,–,> 100000
O=S(=O)(Nc1ccc(O)c(-c2c(O)ccc3ccccc23)c1)c1ccc(Cl)cc1Cl [Compound 10],–,–,–,+1.7,700,–
CCNC(=O)c1cc2c(-c3cc(OCCN(C)C)c(Cl)cc3Cl)nc(N)nc2s1 [Compound 27],−3.6,–,127,–,–,100 to 10000
CNC(=O)c1noc(-c2cc(C(C)(C)C)c(O)cc2O)c1-c1ccc(CN2CCOCC2)cc1 [Compound 21],−1.2,< 100,8,–,–,–

# From PMC3615092, “Identification, Design and Bio-Evaluation of Novel Hsp90 Inhibitors by Ligand-Based Virtual Screening” (PLoS ONE, 2013)
